Assay results as given in the NIST ThermoML archive (doi:10.1016/j.jct.2006.09.017).

Assays:
[1] = 101.33 kPa, Liquid
[2] = xn = mol fraction of the nth substance listed; conditions: 101 kPa, Liquid

CN1CCN(C)C1=O [1,3-dimethyl-2-imidazolidinone]
[1]
Conditions | mass density [kg/m3]
283.15 K | 1064.86
298.15 K | 1051.59
313.15 K | 1038.38

CN1CCN(C)C1=O [1,3-dimethyl-2-imidazolidinone] + CCCCCCCCO
mass density [kg/m3], [2]
Conditions | x1 = 0.09996 | x1 = 0.2 | x1 = 0.3002 | x1 = 0.4001 | x1 = 0.5 | x1 = 0.599 | x1 = 0.7002 | x1 = 0.7996 | x1 = 0.8999
283.15 K | 848.3 | 865.7 | 884.37 | 904.35 | 925.89 | 948.94 | 974.48 | 1001.78 | 1031.95
298.15 K | 837.74 | 854.88 | 873.28 | 893.01 | 914.29 | 937.08 | 962.3 | 989.29 | 1019.12
313.15 K | 827.05 | 843.97 | 862.14 | 881.63 | 902.66 | 925.21 | 950.12 | 976.81 | 1006.31

CN1CCN(C)C1=O [1,3-dimethyl-2-imidazolidinone] + CCCCCCCO
mass density [kg/m3], [2]
Conditions | x1 = 0.09996 | x1 = 0.1999 | x1 = 0.3001 | x1 = 0.4 | x1 = 0.5 | x1 = 0.6001 | x1 = 0.7 | x1 = 0.8001 | x1 = 0.8992
283.15 K | 847.64 | 866.92 | 887.24 | 908.58 | 931.08 | 954.87 | 979.95 | 1006.61 | 1034.61
298.15 K | 836.89 | 855.89 | 875.96 | 897.05 | 919.28 | 942.82 | 967.68 | 994.04 | 1021.77
313.15 K | 826.03 | 844.8 | 864.62 | 885.45 | 907.49 | 930.78 | 955.41 | 981.47 | 1009.02

CN1CCN(C)C1=O [1,3-dimethyl-2-imidazolidinone] + CCCCCCO
mass density [kg/m3], [2]
Conditions | x1 = 0.1 | x1 = 0.2 | x1 = 0.3 | x1 = 0.4001 | x1 = 0.5 | x1 = 0.6001 | x1 = 0.7002 | x1 = 0.7998 | x1 = 0.9001
283.15 K | 847.11 | 868.74 | 890.96 | 913.77 | 937.21 | 961.32 | 986.12 | 1011.48 | 1037.74
298.15 K | 836.15 | 857.49 | 879.43 | 901.99 | 925.23 | 949.12 | 973.62 | 998.72 | 1024.71
313.15 K | 825.02 | 846.12 | 867.81 | 890.13 | 913.07 | 936.71 | 961.04 | 985.96 | 1011.88

CN1CCN(C)C1=O [1,3-dimethyl-2-imidazolidinone] + CCCCCO
mass density [kg/m3], [2]
Conditions | x1 = 0.1 | x1 = 0.2 | x1 = 0.3 | x1 = 0.4001 | x1 = 0.5001 | x1 = 0.6001 | x1 = 0.7 | x1 = 0.8002 | x1 = 0.9
283.15 K | 846.41 | 870.95 | 895.43 | 919.88 | 944.23 | 968.5 | 992.7 | 1016.92 | 1040.93
298.15 K | 835.16 | 859.39 | 883.62 | 907.84 | 931.97 | 956.02 | 980.01 | 1004.03 | 1027.87
313.15 K | 823.75 | 847.72 | 871.72 | 895.74 | 919.68 | 943.56 | 967.36 | 991.25 | 1014.87

CN1CCN(C)C1=O [1,3-dimethyl-2-imidazolidinone] + CCCCO
mass density [kg/m3], [2]
Conditions | x1 = 0.09992 | x1 = 0.2 | x1 = 0.3 | x1 = 0.4002 | x1 = 0.5 | x1 = 0.6 | x1 = 0.7002 | x1 = 0.7999 | x1 = 0.9001
283.15 K | 846.49 | 874.68 | 901.72 | 927.79 | 952.85 | 976.95 | 1000.25 | 1022.61 | 1044.18
298.15 K | 834.78 | 862.67 | 889.49 | 915.33 | 940.22 | 964.19 | 987.34 | 1009.57 | 1031.03
313.15 K | 822.87 | 850.54 | 877.11 | 902.78 | 927.48 | 951.32 | 974.35 | 996.45 | 1017.84

CN1CCN(C)C1=O [1,3-dimethyl-2-imidazolidinone] + CCCO
mass density [kg/m3], [2]
Conditions | x1 = 0.09998 | x1 = 0.2 | x1 = 0.2999 | x1 = 0.4001 | x1 = 0.4998 | x1 = 0.6001 | x1 = 0.7 | x1 = 0.7999 | x1 = 0.9
283.15 K | 847.83 | 880.77 | 910.83 | 938.4 | 963.7 | 987.2 | 1008.86 | 1028.91 | 1047.62
298.15 K | 835.55 | 868.25 | 898.06 | 925.54 | 950.74 | 974.16 | 995.74 | 1015.73 | 1034.43
313.15 K | 823.05 | 855.56 | 885.22 | 912.63 | 937.7 | 961.08 | 982.62 | 1002.67 | 1021.31

CN1CCN(C)C1=O [1,3-dimethyl-2-imidazolidinone] + CCO
mass density [kg/m3], [2]
Conditions | x1 = 0.09998 | x1 = 0.2 | x1 = 0.3001 | x1 = 0.3999 | x1 = 0.4996 | x1 = 0.6002 | x1 = 0.6999 | x1 = 0.8 | x1 = 0.8994
283.15 K | 846.13 | 886.41 | 920.6 | 949.96 | 975.63 | 998.13 | 1017.79 | 1035.31 | 1050.79
298.15 K | 833.1 | 873.26 | 907.41 | 936.72 | 962.36 | 984.83 | 1004.56 | 1022.19 | 1037.59
313.15 K | 819.85 | 859.85 | 893.96 | 923.29 | 948.92 | 971.48 | 991.29 | 1008.94 | 1024.41

CN1CCN(C)C1=O [1,3-dimethyl-2-imidazolidinone] + CO
mass density [kg/m3], [2]
Conditions | x1 = 0.09987 | x1 = 0.1999 | x1 = 0.2999 | x1 = 0.4 | x1 = 0.4985 | x1 = 0.6002 | x1 = 0.7001 | x1 = 0.8002 | x1 = 0.9003
283.15 K | 866.6 | 914.65 | 950.88 | 978.91 | 1000.83 | 1019.06 | 1033.62 | 1045.88 | 1056.16
298.15 K | 852.53 | 900.56 | 936.99 | 965.04 | 987.09 | 1005.48 | 1020.04 | 1032.47 | 1042.89
313.15 K | 838.25 | 886.37 | 922.85 | 951.05 | 973.2 | 991.72 | 1006.43 | 1019.04 | 1029.49

CCCCO [butan-1-ol]
[1]
Conditions | mass density [kg/m3]
283.15 K | 817.18
298.15 K | 805.79
313.15 K | 794.18

CCO [ethanol]
[1]
Conditions | mass density [kg/m3]
283.15 K | 797.88
298.15 K | 785.13
313.15 K | 772.05

CCCCCCCO [heptan-1-ol]
[1]
Conditions | mass density [kg/m3]
283.15 K | 829.27
298.15 K | 818.78
313.15 K | 808.11

CCCCCCO [hexan-1-ol]
[1]
Conditions | mass density [kg/m3]
283.15 K | 826.03
298.15 K | 815.34
313.15 K | 804.46

CO [methanol]
[1]
Conditions | mass density [kg/m3]
283.15 K | 800.62
298.15 K | 786.56
313.15 K | 772.32

CCCCCCCCO [octan-1-ol]
[1]
Conditions | mass density [kg/m3]
283.15 K | 832.06
298.15 K | 821.72
313.15 K | 811.21

CCCCCO [pentan-1-ol]
[1]
Conditions | mass density [kg/m3]
283.15 K | 821.81
298.15 K | 810.88
313.15 K | 799.71

CCCO [propan-1-ol]
[1]
Conditions | mass density [kg/m3]
283.15 K | 811.54
298.15 K | 799.59
313.15 K | 787.36
